The results in this text go back to US11912719B2, “Substituted isoquinolines as rock kinase inhibitors” (Cervello Therapeutics LLC, priority 2018, dated 2024).

Holding throughout (type): biochemical
The target of one assay is T1, PKACα (PRKACA) (Homo sapiens, UniProt P17612).
T1 construct: GST; purchased Carna BioSciences 01-127
As to the kind of experiment: fluorescence coupling (TR-FRET) enzymatic assay, PKACA off-target control. The note with it: 10 pM enzyme, 1 μM ATP, 50 nM Ulight-CREBTide, one hour room temperature. As to the method: (§1) Dose-response curves for compounds of the present invention were determined using a fluorescence coupling enzymatic assay using purified C-terminal truncated human ROCK1 catalytic domain (amino acids 1-477 of accession number NP_005397.1) fused to GST (Carna BioSciences, Catalog #01-109) and purified C-terminal truncated human ROCK2 enzyme kinase domain (amino acids 1-553 of accession number NP_004841.2) fused to GST BioSciences, Catalog #01-110). In addition, full length cGMP-dependent protein kinase 1 (PKG or PRKG1; amino acids 1-686 of accession number NP_006249.1) fused to GST (Carna BioSciences, Catalog #01-142), full length PKACα (PRKACA; amino acids 1-351 of accession number NP_002721.1) fused to GST (Carna BioSciences, Catalog #01-127), and C-terminal truncated human AKT1 catalytic domain (amino acids 104-480 of accession number NP_005154.1) fused to GST Biosciences, Catalog #01-101) were used as a control to measure any non-desired off-target kinase activity.
(§2) Briefly, compounds of the present invention were solubilized in DMSO and a series of 12, three-fold serial dilutions were made for each compound in 2.5% DMSO. The initial starting concentration for the serial dilutions of each compound was 10 μM or 100 μM. Control samples lacking compound, ROCK enzyme or ATP also were prepared and processed in parallel with compound test samples.
(§3) A 4 μL aliquot of each serial dilution of test compound diluted in H2O with 2.5% DMSO was added to a well containing 4 μL of 10 nM purified N-truncated ROCK1 (4 nM final concentration), 10 nM purified N-truncated ROCK2 enzyme (4 nM final concentration), 1.25 nM AKT1 (0.5 nM final concentration), 25 pM PKACA (10 pM final concentration) or 20 nM PKG (8 nM final concentration), in reaction buffer containing 50 mM Hepes, pH 7.5, 1 mM EGTA, 10 mM MgCl2, 2 mM DTT, and 0.01% Tween 20 (final concentration). To initiate the enzymatic reaction, 2 μL of a solution was added to each well to provide a final concentration of 50 nM Ulight-CREBTide peptide substrate (Perkin Elmer, Catalog #TRF0107) and 4 μM ATP for ROCK1 and AKT1 assays, […] for ROCK2 assays and 30 μM ATP for PKG assays, or 1 μM ATP for PKACA assays. The reaction mixtures were incubated at room temperature for one hour. After one hour, the reaction was stopped by the addition of a 10 solution of an Europium-labelled phospho-CREB (Ser133) antibody (Perkin Elmer, Catalog #TRF0200) in LANCE buffer supplemented with 20 mM EDTA. The stopped reaction mixtures were incubated at room temperature for 90 minutes. The TR-FRET 665/620 ratios were determined using a Clariostar monochromator plate reader instrument (BMG LabTech) in accordance with the manufacturer's instructions. The ICso value for each compound was determined from each dose-response curve using GraphPad Prism 7 software with a sigmodial dose response. Key: A is IC50≤100 nM; B is 100 nM<IC50<1000 nM; C is 1,000<IC50≤10,000 nM; D is IC50>10,000 nM

For assay [1], the target named is T2, cGMP-dependent protein kinase 1 (PKG or PRKG1) (Homo sapiens, UniProt Q13976).
T2 construct: GST; purchased Carna BioSciences 01-142
T2 sequence (Q13976 1-686 isoform Q13976-2): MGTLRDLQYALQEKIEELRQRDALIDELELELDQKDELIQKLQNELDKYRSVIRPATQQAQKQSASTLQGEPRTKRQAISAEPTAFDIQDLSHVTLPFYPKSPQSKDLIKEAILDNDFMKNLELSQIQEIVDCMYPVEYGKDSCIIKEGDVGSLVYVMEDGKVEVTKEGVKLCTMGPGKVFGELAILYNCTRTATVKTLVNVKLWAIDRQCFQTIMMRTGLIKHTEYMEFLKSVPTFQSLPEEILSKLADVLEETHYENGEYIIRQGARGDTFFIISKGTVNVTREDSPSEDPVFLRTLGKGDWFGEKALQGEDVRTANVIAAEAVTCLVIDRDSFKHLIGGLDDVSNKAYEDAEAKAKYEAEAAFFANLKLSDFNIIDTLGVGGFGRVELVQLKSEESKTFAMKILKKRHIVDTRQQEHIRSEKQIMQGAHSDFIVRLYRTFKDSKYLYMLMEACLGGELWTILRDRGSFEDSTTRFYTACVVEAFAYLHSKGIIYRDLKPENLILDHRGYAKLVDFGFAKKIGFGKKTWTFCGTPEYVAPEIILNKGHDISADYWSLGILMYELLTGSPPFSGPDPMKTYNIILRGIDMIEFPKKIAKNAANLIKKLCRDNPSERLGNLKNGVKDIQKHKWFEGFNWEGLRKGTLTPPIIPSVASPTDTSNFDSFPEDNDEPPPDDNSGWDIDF
As to the kind of experiment: fluorescence coupling (TR-FRET) enzymatic assay, PKG off-target control. The note with it: 8 nM enzyme, 30 μM ATP, 50 nM Ulight-CREBTide, one hour room temperature. As to the method: as §1, §2, §3
For orientation: TR-FRET usually uses a lanthanide donor and a delayed reading to cut background.

Assay [2] deals with T3, human ROCK1 catalytic domain (Homo sapiens, UniProt Q13464).
T3 construct: GST; purchased Carna BioSciences 01-109
As to the kind of experiment: fluorescence coupling (TR-FRET) enzymatic assay, ROCK1. The note with it: 4 nM enzyme, 4 μM ATP, 50 nM Ulight-CREBTide, one hour room temperature; read-out: ROCK1 IC50. As to the method:
as §2
The reaction mixtures were incubated at room temperature for one hour. After one hour, the reaction was stopped by the addition of a 10 solution of an Europium-labelled phospho-CREB (Ser133) antibody (Perkin Elmer, Catalog #TRF0200) in LANCE buffer supplemented with 20 mM EDTA. The stopped reaction mixtures were incubated at room temperature for 90 minutes. […] The ICso value for each compound was determined from each dose-response curve using GraphPad Prism 7 software with a sigmodial dose response.

Assay [3] deals with T4, human ROCK2 enzyme kinase domain (Homo sapiens, UniProt O75116).
T4 construct: GST; purchased Carna BioSciences 01-110
As to the kind of experiment: fluorescence coupling (TR-FRET) enzymatic assay, ROCK2. The note with it: 4 nM enzyme, 50 nM Ulight-CREBTide, one hour room temperature. As to the method: as §1, §2, §3

For assay [4], the target named is T5, human AKT1 catalytic domain (Homo sapiens, UniProt P31749).
T5 construct: GST; purchased Carna BioSciences 01-101
As to the kind of experiment: fluorescence coupling (TR-FRET) enzymatic assay, AKT1 off-target control. The note with it: 0.5 nM enzyme, 4 μM ATP, 50 nM Ulight-CREBTide, one hour room temperature. As to the method:
as §1, §2, §3

Structures are written as SMILES. Bounds are passed on as bounds.

T5 sequence (P31749 104-480): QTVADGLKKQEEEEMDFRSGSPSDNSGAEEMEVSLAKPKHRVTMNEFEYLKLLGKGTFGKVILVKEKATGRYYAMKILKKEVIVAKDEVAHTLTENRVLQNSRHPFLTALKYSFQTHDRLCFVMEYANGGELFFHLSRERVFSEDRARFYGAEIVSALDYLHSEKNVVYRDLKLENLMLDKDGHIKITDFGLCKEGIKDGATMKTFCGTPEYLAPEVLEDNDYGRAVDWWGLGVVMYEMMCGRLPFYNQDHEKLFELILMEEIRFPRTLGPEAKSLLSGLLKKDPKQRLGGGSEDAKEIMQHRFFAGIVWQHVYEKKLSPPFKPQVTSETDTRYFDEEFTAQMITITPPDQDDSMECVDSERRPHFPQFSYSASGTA
T3 sequence (Q13464 1-477): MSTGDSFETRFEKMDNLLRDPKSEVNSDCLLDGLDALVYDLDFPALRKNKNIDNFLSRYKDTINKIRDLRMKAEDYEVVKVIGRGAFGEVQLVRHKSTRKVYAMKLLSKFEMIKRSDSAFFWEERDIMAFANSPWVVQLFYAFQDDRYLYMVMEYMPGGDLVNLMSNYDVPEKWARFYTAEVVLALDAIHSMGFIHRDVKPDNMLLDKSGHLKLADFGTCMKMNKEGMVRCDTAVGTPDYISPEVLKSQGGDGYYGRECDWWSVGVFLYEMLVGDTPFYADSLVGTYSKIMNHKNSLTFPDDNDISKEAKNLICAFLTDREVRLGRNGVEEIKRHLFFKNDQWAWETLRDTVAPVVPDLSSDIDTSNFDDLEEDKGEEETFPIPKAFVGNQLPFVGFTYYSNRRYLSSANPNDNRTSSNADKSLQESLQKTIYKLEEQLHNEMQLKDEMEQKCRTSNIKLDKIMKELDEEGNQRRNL
T4 sequence (O75116 1-553): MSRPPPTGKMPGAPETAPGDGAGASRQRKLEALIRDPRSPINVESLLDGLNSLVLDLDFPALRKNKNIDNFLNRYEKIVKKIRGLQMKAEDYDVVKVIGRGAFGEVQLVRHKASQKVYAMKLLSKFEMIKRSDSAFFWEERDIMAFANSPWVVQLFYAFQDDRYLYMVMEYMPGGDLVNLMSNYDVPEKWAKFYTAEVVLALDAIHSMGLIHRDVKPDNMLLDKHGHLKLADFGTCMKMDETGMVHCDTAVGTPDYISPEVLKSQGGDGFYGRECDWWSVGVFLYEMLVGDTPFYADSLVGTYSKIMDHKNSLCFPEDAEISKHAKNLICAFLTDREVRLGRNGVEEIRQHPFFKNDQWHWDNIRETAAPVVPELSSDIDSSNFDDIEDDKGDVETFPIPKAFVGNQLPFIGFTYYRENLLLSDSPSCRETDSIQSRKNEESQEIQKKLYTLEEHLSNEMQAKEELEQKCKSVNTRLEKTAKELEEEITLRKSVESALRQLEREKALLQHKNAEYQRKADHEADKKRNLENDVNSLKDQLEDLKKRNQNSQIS

`Cc1cc(C#N)cc2c1CCN2S(=O)(=O)c1cccc2c(O)ncc(C)c12` [Example 23, 1-((1-Hydroxy-4-methylisoquinolin-5-yl)sulfonyl)-4-methylindoline-6-carbonitrile]: the IC50 at PKACα (PRKACA) was above 10 µM; in assay [1], above 10 µM; in assay [2], 0.1 to 1 µM; in assay [3], 0.1 to 1 µM; in assay [4], above 10 µM.

Consider `Cc1cnc(O)c2cccc(S(=O)(=O)N3CCc4ccc(Cl)cc43)c12` [Example 24, 5-((6-Chloroindolin-1-yl)sulfonyl)-4-methylisoquinolin-1-ol], for which the IC50 on PKACα (PRKACA) was above 10 µM; in assay [1], above 10 µM; in assay [2], 1 to 10 µM; in assay [3] it was 1 to 10 µM; in assay [4], above 10 µM.

Turning to `O=c1[nH]ncc2c(S(=O)(=O)N3CCc4ccc(Cl)cc43)cccc12` [Example 25, 5-((6-Chloroindolin-1-yl)sulfonyl)phthalazin-1 (2H)-one], the concentration for half-maximal inhibition (IC50) at PKACα (PRKACA) is above 10 µM; in assay [1] it was above 10 µM; in assay [2], 1 to 10 µM; in assay [3], 1 to 10 µM; in assay [4], above 10 µM.

With `N#Cc1ccc2c(c1)N(S(=O)(=O)c1cccc3c(=O)[nH]ncc13)CC2` [Example 26, 1-((1-Oxo-1,2-dihydrophthalazin-5-yl)sulfonyl)indoline-6-carbonitrile], the IC50 against PKACα (PRKACA) was above 10 µM; in assay [1], above 10 µM; in assay [2] it was 0.1 to 1 µM; in assay [3], 0.1 to 1 µM; in assay [4], above 10 µM.

Consider `N#Cc1ccc2c(c1)N(S(=O)(=O)c1cccc3c(=O)[nH]cc(Cl)c13)CC2` [Example 27, 1-((4-chloro-1-oxo-1,2-dihydroisoquinolin-5-yl)sulfonyl)indoline-6-carbonitrile], for which the IC50 was 1 to 10 µM against PKACα (PRKACA); above 10 µM in assay [1]; below 0.1 µM in assay [2]; below 0.1 µM in assay [3]; 1 to 10 µM in assay [4].

For `N#Cc1cc2c(cn1)CCN2S(=O)(=O)c1cccc2c(=O)[nH]ccc12` [Example 28, 1-((1-oxo-1,2-dihydroisoquinolin-5-yl)sulfonyl)-2,3-dihydro-1H-pyrrolo[3,2-c]pyridine-6-carbonitrile], the IC50 against PKACα (PRKACA) was above 10 µM; in assay [1], above 10 µM; in assay [2] it was 0.1 to 1 µM; in assay [3], 0.1 to 1 µM; in assay [4], above 10 µM.

Consider `COc1cc(C#N)cc2c1CCN2S(=O)(=O)c1cccc2c(=O)[nH]ccc12` [Example 29, 4-methoxy-1-((1-oxo-1,2-dihydroisoquinolin-5-yl)sulfonyl)indoline-6-carbonitrile], for which the concentration for half-maximal inhibition (IC50) was 1 to 10 µM on PKACα (PRKACA); above 10 µM in assay [1]; below 0.1 µM in assay [2]; below 0.1 µM in assay [3]; 1 to 10 µM in assay [4].

As to `CC(=O)Nc1cc(C#N)cc2c1CCN2S(=O)(=O)c1cccc2c(=O)[nH]ccc12` [Example 30, N-(6-cyano-1-((1-oxo-1,2-dihydroisoquinolin-5-yl)sulfonyl)indolin-4-yl)acetamide], the IC50 was 1 to 10 µM against PKACα (PRKACA); above 10 µM in assay [1]; below 0.1 µM in assay [2]; below 0.1 µM in assay [3]; 1 to 10 µM in assay [4].

In the case of `N#Cc1cc(N)c2c(c1)N(S(=O)(=O)c1cccc3c(=O)[nH]ccc13)CC2` [Example 31, 4-amino-1-((1-oxo-1,2-dihydroisoquinolin-5-yl)sulfonyl)indoline-6-carbonitrile], the concentration for half-maximal inhibition (IC50) against PKACα (PRKACA) is 1 to 10 µM; in assay [1] it was above 10 µM; in assay [2] it was below 0.1 µM; in assay [3], below 0.1 µM; in assay [4], above 10 µM.

In the case of `CC(=O)Nc1cc(C#N)cc2c1CCN2S(=O)(=O)c1cccc2c(=O)[nH]cc(C)c12` [Example 32, N-(6-cyano-1-((4-methyl-1-oxo-1,2-dihydroisoquinolin-5-yl)sulfonyl)indolin-4-yl)acetamide], the IC50 against PKACα (PRKACA) was above 10 µM; in assay [1], 1 to 10 µM; in assay [2], below 0.1 µM; in assay [3] it was below 0.1 µM; in assay [4], above 10 µM.

Take `Cc1c[nH]c(=O)c2cccc(S(=O)(=O)N3CCc4c(N)cc(C#N)cc43)c12` [Example 33, 4-amino-1-((4-methyl-1-oxo-1,2-dihydroisoquinolin-5-yl)sulfonyl)indoline-6-carbonitrile]: the IC50 at PKACα (PRKACA) is above 10 µM; in assay [1] it was above 10 µM; in assay [2], below 0.1 µM; in assay [3], below 0.1 µM; in assay [4], above 10 µM.

Turning to `Cc1c[nH]c(=O)c2cccc(S(=O)(=O)N3CCc4c(N(C)C)cc(C#N)cc43)c12` [Example 34, 4-(dimethylamino)-1-((4-methyl-1-oxo-1,2-dihydroisoquinolin-5-yl)sulfonyl)indoline-6-carbonitrile], the 50% inhibitory concentration (IC50) is above 10 µM at PKACα (PRKACA); above 10 µM in assay [1]; 1 to 10 µM in assay [2]; 1 to 10 µM in assay [3]; above 10 µM in assay [4].

`CC(=O)Nc1cc(C#N)cc2c1CCN2S(=O)(=O)c1cccc2c(=O)[nH]cc(Cl)c12` [Example 35, N-(1-((4-chloro-1-oxo-1,2-dihydroisoquinolin-5-yl)sulfonyl)-6-cyanoindolin-4-yl)acetamide]: the IC50 against PKACα (PRKACA) was above 10 µM; in assay [1], 1 to 10 µM; in assay [2] it was below 0.1 µM; in assay [3] it was below 0.1 µM; in assay [4] it was above 10 µM.

On to `N#Cc1cc(N)c2c(c1)N(S(=O)(=O)c1cccc3c(=O)[nH]cc(Cl)c13)CC2` [Example 36, 4-amino-1-((4-chloro-1-oxo-1,2-dihydroisoquinolin-5-yl)sulfonyl)indoline-6-carbonitrile], for which the IC50 against PKACα (PRKACA) is above 10 µM; in assay [1] it was 1 to 10 µM; in assay [2], below 0.1 µM; in assay [3], below 0.1 µM; in assay [4] it was above 10 µM.

For orientation: IC50 means the midpoint of a concentration-inhibition curve.
